Laboratory results taken from patent publication US20240285688A1, “Extensive whey protein hydrolysate with tolerogenic peptides” (N.V. Nutricia, priority 2019, published 2024).
Peptide text beside a SMILES is read from it.

Test: Presence of tolerogenic betalactoglobulin peptides in feed, retentate and permeate of membrane ultrafiltration (micro LC-MS ESI MS2)
Type: physicochemical
Conditions: Example 3: urea (8 M) added after hydrolysis and before ultrafiltration
Description: In a Multifors reactor (Infors HT) 500 gram of whey protein powder (WPC83, Arla Foods, with about 80% whey protein) was dissolved in water at a final concentration of about 4 wt % at a temperature of about 75° C., giving a protein concentration of about 3.2 wt %. After dissolving the mixture was cooled to 58° C. and the pH was adjusted to neutral (pH 7-8). Proteolytic enzymes were added (Trypsin, Neova Technologies Inc) to a concentration of 33 mg/100 g solution and hydrolysis took place for about 105 min under continuous stirring. During hydrolysis the pH was kept constant. After hydrolysis the mixture was quickly cooled to 4° C.
Next the mixture of whey protein hydrolysate and proteolytic enzymes was filtrated. 200 ml of the mixture (the feed) was filtrated for 20 minutes on a MMS Triple System membrane filtration unit (MMS AG Membrane Systems) provided with an ultrafiltration membrane from Koch (Koch: HFK-131, a flat sheet polyethersulfone ultrafiltration membrane with a molecular weight cut off of 10 kDa) under a pressure of 8 bars. A one-layer filtration setup was used and the retentate was circulated during filtration. Each membrane was used only once to promote reproducibility. The filtration cooling system was set to 15° C. The permeate was weighted, MMS filtration software was used for the registering of the permeate throughput. Samples were taken of the mixture before membrane filtration (the feed), and of the permeate and retentate after the membrane filtration step. About 93% of permeate (wt % of total feed) was produced comprising about 85 wt % of peptides (wt % of the peptides in the feed). Samples were stored at −50° C. for further analysis.
The presence of tolerogenic betalactoglobulin peptides in the samples was analyzed according to Gouw et al., 2018, Clin. Exp. Allergy 48:[…], with the modification that instead of nanoLC-ESI MS2, micro LC-MS ESI MS2 was used. The presence of 5 specific peptides was tested (region overlapping with the 13-48 AA acid region of betalactoglobulin in bold):
The process of example 1 was repeated. The only difference was that Citrem (Grinsted® Citrem, DuPont) was added at an amount of about 3.6 gram before the pH adjustment and the addition of the proteolytic enzymes. […]
The process of example 2a was repeated, the only difference being that instead of the emulsifier, 51 gram of urea (source Merck) was dissolved per 100 g water (8 M) and added after the hydrolysis step and before ultrafiltration. […] All peptides were detected in the retentate and feed, and peptides 1, 3, 4 and 5 of example 1 (i.e. SEQ ID NOs 66, 68, 69 and 70 with X=L) were detected in the permeate, in an amount of about 1-10 wt. % of the concentration of these peptides in the feed. […]

presence of the tolerogenic peptides in the permeate	Compound
detected	CC[C@H](C)[C@H](NC(=O)[C@H](CC(=O)O)NC(=O)[C@H](CC(C)C)NC(=O)CNC(=O)[C@H](CCCCN)NC(=O)[C@H](CCSC)NC(=O)[C@@H](N)[C@@H](C)O)C(=O)N[C@@H](CCC(N)=O)C(=O)N[C@@H](CCCCN)C(=O)N[C@H](C(=O)N[C@@H](C)C(=O)NCC(=O)N[C@H](C(=O)N[C@@H](Cc1c[nH]c2ccccc12)C(=O)N[C@@H](Cc1ccc(O)cc1)C(=O)N[C@@H](CO)C(=O)N[C@@H](CC(C)C)C(=O)N[C@@H](C)C(=O)N[C@@H](CCSC)C(=O)N[C@@H](C)C(=O)N[C@@H](C)C(=O)N[C@@H](CO)C(=O)N[C@@H](CC(=O)O)C(=O)N[C@H](C(=O)N[C@@H](CO)C(=O)N[C@@H](CC(C)C)C(=O)N[C@@H](CC(C)C)C(=O)O)[C@@H](C)CC)[C@@H](C)O)C(C)C [Peptide 4] (H-TMKGLDIQKVAGTWYSLAMAASDISLL-OH; N-terminus and C-terminus assumed)
detected	CC[C@H](C)[C@H](NC(=O)[C@H](CC(=O)O)NC(=O)[C@H](CC(C)C)NC(=O)CNC(=O)[C@H](CCCCN)NC(=O)[C@H](CCSC)NC(=O)[C@@H](NC(=O)[C@H](CCC(N)=O)NC(=O)[C@@H](NC(=O)[C@@H](NC(=O)[C@@H](NC(=O)[C@@H](N)CC(C)C)[C@@H](C)CC)C(C)C)[C@@H](C)O)[C@@H](C)O)C(=O)N[C@@H](CCC(N)=O)C(=O)N[C@@H](CCCCN)C(=O)N[C@H](C(=O)N[C@@H](C)C(=O)NCC(=O)N[C@H](C(=O)N[C@@H](Cc1c[nH]c2ccccc12)C(=O)N[C@@H](Cc1ccc(O)cc1)C(=O)N[C@@H](CO)C(=O)N[C@@H](CC(C)C)C(=O)N[C@@H](C)C(=O)N[C@@H](CCSC)C(=O)N[C@@H](C)C(=O)N[C@@H](C)C(=O)N[C@@H](CO)C(=O)O)[C@@H](C)O)C(C)C [Peptide 1] (H-LIVTQTMKGLDIQKVAGTWYSLAMAAS-OH; N-terminus and C-terminus assumed)
detected	CC[C@H](C)[C@H](NC(=O)[C@H](CC(=O)O)NC(=O)[C@H](CC(C)C)NC(=O)CNC(=O)[C@H](CCCCN)NC(=O)[C@H](CCSC)NC(=O)[C@@H](N)[C@@H](C)O)C(=O)N[C@@H](CCC(N)=O)C(=O)N[C@@H](CCCCN)C(=O)N[C@H](C(=O)N[C@@H](C)C(=O)NCC(=O)N[C@H](C(=O)N[C@@H](Cc1c[nH]c2ccccc12)C(=O)N[C@@H](Cc1ccc(O)cc1)C(=O)N[C@@H](CO)C(=O)N[C@@H](CC(C)C)C(=O)N[C@@H](C)C(=O)N[C@@H](CCSC)C(=O)N[C@@H](C)C(=O)N[C@@H](C)C(=O)N[C@@H](CO)C(=O)N[C@@H](CC(=O)O)C(=O)N[C@H](C(=O)N[C@@H](CO)C(=O)N[C@@H](CC(C)C)C(=O)N[C@@H](CC(C)C)C(=O)N[C@@H](CC(=O)O)C(=O)N[C@@H](C)C(=O)N[C@@H](CCC(N)=O)C(=O)O)[C@@H](C)CC)[C@@H](C)O)C(C)C [Peptide 3] (H-TMKGLDIQKVAGTWYSLAMAASDISLLDAQ-OH; N-terminus and C-terminus assumed)
detected	CC[C@H](C)[C@H](NC(=O)[C@H](CC(=O)O)NC(=O)[C@H](CC(C)C)NC(=O)CNC(=O)[C@H](CCCCN)NC(=O)[C@H](CCSC)NC(=O)[C@@H](NC(=O)[C@H](CCC(N)=O)NC(=O)[C@@H](NC(=O)[C@@H](NC(=O)[C@@H](NC(=O)[C@@H](N)CC(C)C)[C@@H](C)CC)C(C)C)[C@@H](C)O)[C@@H](C)O)C(=O)N[C@@H](CCC(N)=O)C(=O)N[C@@H](CCCCN)C(=O)N[C@H](C(=O)N[C@@H](C)C(=O)NCC(=O)N[C@H](C(=O)N[C@@H](Cc1c[nH]c2ccccc12)C(=O)N[C@@H](Cc1ccc(O)cc1)C(=O)N[C@@H](CO)C(=O)N[C@@H](CC(C)C)C(=O)N[C@@H](C)C(=O)N[C@@H](CCSC)C(=O)N[C@@H](C)C(=O)N[C@@H](C)C(=O)N[C@@H](CO)C(=O)N[C@@H](CC(=O)O)C(=O)N[C@H](C(=O)N[C@@H](CO)C(=O)N[C@@H](CC(C)C)C(=O)N[C@@H](CC(C)C)C(=O)O)[C@@H](C)CC)[C@@H](C)O)C(C)C [Peptide 5] (H-LIVTQTMKGLDIQKVAGTWYSLAMAASDISLL-OH; N-terminus and C-terminus assumed)
